Measurements taken from patent US20230374038A1, “MODULATORS OF CYSTIC FIBROSIS TRANSMEMBRANE CONDUCTANCE REGULATOR” (VERTEX PHARMACEUTICALS INCORPORATED, priority 2020, published 2023).
Like-named read-outs stand apart in the source and are kept apart here.

Assays:
F508del = target: T1, F508del (Homo sapiens, UniProt P13569, DEL508-508); assay: 3T3 Assay: membrane potential optical assay for F508del correctors in NIH 3T3 cells; assay type: cell-based; conditions: for EC50: F508del corrector assay; for Emax: NIH3T3, F508del corrector assay, read-out: 3T3 Max Activity
T1 construct: expressed in transfected cells; host or cells: NIH3T3 mouse fibroblasts
T1 sequence (P13569 with tags, fused parts or gaps DEL508-508): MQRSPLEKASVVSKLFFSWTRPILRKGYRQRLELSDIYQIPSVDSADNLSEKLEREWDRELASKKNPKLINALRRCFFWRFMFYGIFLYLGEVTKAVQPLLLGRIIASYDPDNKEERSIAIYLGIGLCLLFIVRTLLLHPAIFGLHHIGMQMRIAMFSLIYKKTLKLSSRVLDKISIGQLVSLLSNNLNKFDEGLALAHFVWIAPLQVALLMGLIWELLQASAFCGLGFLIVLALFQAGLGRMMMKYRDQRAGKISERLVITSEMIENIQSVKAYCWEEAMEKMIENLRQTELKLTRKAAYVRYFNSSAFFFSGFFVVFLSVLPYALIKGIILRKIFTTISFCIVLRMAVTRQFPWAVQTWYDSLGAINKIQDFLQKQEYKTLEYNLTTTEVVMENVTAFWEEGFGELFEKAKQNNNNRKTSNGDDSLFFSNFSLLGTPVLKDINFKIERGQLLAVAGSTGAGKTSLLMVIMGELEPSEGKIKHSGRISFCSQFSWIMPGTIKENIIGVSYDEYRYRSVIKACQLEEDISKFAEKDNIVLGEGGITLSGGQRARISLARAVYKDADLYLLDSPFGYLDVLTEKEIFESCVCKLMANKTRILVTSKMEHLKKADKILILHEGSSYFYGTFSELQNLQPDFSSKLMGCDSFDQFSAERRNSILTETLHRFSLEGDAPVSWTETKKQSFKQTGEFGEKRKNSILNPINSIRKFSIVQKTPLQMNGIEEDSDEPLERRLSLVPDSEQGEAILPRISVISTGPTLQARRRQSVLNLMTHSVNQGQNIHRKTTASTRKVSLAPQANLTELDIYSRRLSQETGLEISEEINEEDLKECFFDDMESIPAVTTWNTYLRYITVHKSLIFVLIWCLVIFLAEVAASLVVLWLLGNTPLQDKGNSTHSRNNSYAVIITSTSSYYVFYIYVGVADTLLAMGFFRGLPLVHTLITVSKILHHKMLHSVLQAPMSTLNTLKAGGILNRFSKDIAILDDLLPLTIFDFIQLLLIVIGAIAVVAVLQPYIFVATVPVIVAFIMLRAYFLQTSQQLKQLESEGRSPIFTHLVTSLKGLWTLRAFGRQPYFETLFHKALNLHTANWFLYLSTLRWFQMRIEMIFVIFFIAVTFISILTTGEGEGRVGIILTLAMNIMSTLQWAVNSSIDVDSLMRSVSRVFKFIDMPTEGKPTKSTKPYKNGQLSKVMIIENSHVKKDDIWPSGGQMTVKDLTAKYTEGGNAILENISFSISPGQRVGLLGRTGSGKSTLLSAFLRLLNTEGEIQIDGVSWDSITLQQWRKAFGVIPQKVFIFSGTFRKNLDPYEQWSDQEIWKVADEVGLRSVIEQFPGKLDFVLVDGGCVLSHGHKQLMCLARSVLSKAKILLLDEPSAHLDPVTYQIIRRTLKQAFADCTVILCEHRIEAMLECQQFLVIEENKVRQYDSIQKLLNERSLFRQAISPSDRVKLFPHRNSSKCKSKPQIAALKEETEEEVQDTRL
From the text: The assay utilizes fluorescent voltage sensing dyes to measure changes in membrane potential using a fluorescent plate reader (e.g., FLIPR III, Molecular Devices, Inc.) as a readout for increase in functional F508del in NIH 3T3 cells. The driving force for the response is the creation of a chloride ion gradient in conjunction with channel activation by a single liquid addition step after the cells have previously been treated with compounds and subsequently loaded with a voltage sensing dye.
To identify correctors of F508del, a single-addition HTS assay format was developed. This HTS assay utilizes fluorescent voltage sensing dyes to measure changes in membrane potential on the FLIPR III as a measurement for increase in gating (conductance) of F508del in F508del NIH 3T3 cells. The F508del NIH 3T3 cell cultures were incubated with the corrector compounds at a range of concentrations for 18-24 hours at 37° C., and subsequently loaded with a redistribution dye. The driving force for the response is a Cl^− ion gradient in conjunction with channel activation with forskolin in a single liquid addition step using a fluorescent plate reader such as FLIPR III.
Bath Solution #1: (in mM) NaCl 160, KCl 4.5, CaCl2) 2, MgCl2 1, HEPES 10, pH 7.4 with NaOH.
Chloride-free bath solution: Chloride salts in Bath Solution #1 (above) are substituted with gluconate salts.
NIH3T3 mouse fibroblasts stably expressing F508del are used for optical measurements of membrane potential. The cells are maintained at 37° C. in 5% CO2 and 90% humidity in Dulbecco's modified Eagle's medium supplemented with 2 mM glutamine, 10% fetal bovine serum, 1×NEAA, b-ME, 1× pen/strep, and 25 mM HEPES in 175 cm^2 culture flasks. For all optical assays, the cells were seeded at ˜20,000/well in 384-well matrigel-coated plates. For the correction assays, the cells are cultured at 37° C. with and without compounds for 16-24 hours.

CFTR [1] = target: T2, CFTR (Homo sapiens, UniProt P13569); assay: Membrane Potential Dye, Enteroid Assay A; assay type: cell-based; conditions: for EC50: read-out: Ent. A EC50
T2 sequence (P13569 with tags, fused parts or gaps DEL508-508): as above
Procedure: Base medium (ADF+++) consisted of Advanced DMEM/Ham's F12, 2 mM Glutamax, 10 mM HEPES, 1 µg/mL penicillin/streptomycin.
Intestinal enteroid maintenance medium (IEMM) consisted of ADF+++, 1× B27 supplement, 1× N2 supplement, 1.25 mM N-acetyl cysteine, 10 mM Nicotinamide, 50 ng/mL hEGF, 10 nM Gastrin, 1 pg/mL hR-spondin-1, 100 ng/mL hNoggin, TGF-b type 1 inhibitor A-83-01, 100 μg/mL Primocin, […] P38 MAPK inhibitor SB202190.
Bath 1 Buffer consisted of 1 mM MgCl2, 160 mM NaCl, 4.5 mM KCl, 10 mM HEPES, 10 mM Glucose, 2 mM CaCl2).
Chloride Free Buffer consisted of 1 mM Magnesium Gluconate, 2 mM Calcium Gluconate, 4.5 mM Potassium Gluconate, 160 mM Sodium Gluconate, 10 mM HEPES, 10 mM Glucose.
Bath1 Dye Solution consisted of Bath 1 Buffer, 0.04% Pluronic F127, […] Methyl Oxonol, 30 μM CaCCinh-A01, 30 μM Chicago Sky Blue.
Chloride Free Dye Solution consisted of Chloride Free Buffer, 0.04% Pluronic F127, 20 μM Methyl Oxonol, 30 μM CaCCinh-A01, 30 μM Chicago Sky Blue.
Chloride Free Dye Stimulation Solution consisted of Chloride Free Dye Solution, 10 μM forskolin, 100 μM IBMX, and 300 nM Compound III.
Human intestinal epithelial enteroid cells were obtained from the Hubrecht Institute for Developmental Biology and Stem Cell Research, Utrecht, The Netherlands and expanded in T-Flasks as previously described (Dekkers J F, Wiegerinck C L, de Jonge H R, Bronsveld I, Janssens H M, de Winter-de Groot K M, Brandsma A M, de Jong N W M, Bijvelds M J C, Scholte B J, Nieuwenhuis E E S, van den Brink S, Clevers H, van der Ent C K, Middendorp S and M Beekman J M. A functional CFTR assay using primary cystic fibrosis intestinal organoids. Nat Med. 2013 July; 19(7):939-45.).
Cells were recovered in cell recovery solution, collected by centrifugation at 650 rpm for 5 min at 4° C., resuspended in TryPLE and incubated for 5 min at 37° C. Cells were then collected by centrifugation at 650 rpm for 5 min at 4° C. and resuspended in IEMM containing 10 μM ROCK inhibitor (RI). The cell suspension was passed through a 40 μm cell strainer and resuspended at 1×10^6 cells/mL in IEMM containing 10 μM RI. Cells were seeded at 5000 cells/well into multi-well plates and incubated for overnight at 37° C., 95% humidity and 5% CO2 prior to assay.
Enteroid cells were incubated with test compound in IEMM for 18-24 hours at 37° C., 95% humidity and 5% CO2. […] Briefly, cells were washed 5 times in Bath 1 Buffer. Bath 1 Dye Solution was added, and the cells were incubated for 25 min at room temperature. Following dye incubation, cells were washed 3 times in Chloride Free Dye Solution. Chloride transport was initiated by addition of Chloride Free Dye Stimulation Solution and the fluorescence signal was read for 15 min. […] Chloride transport was then expressed as a percentage of the chloride transport following treatment with 3 μM (S)—N-((6-aminopyridin-2-yl)sulfonyl)-6-(3-fluoro-5-isobutoxyphenyl)-2-(2,2,4-trimethylpyrrolidin-1-yl)nicotinamide, 3 μM (R)-1-(2,2-difluorobenzo[d][1,3]dioxol-5-yl)-N-(1-(2,3-dihydroxypropyl)-6-fluoro-2-(1-hydroxy-2-methylpropan-2-yl)-1H-indol-5-yl)cyclopropanecarboxamide and 300 nM acute N-[2,4-bis(1,1-dimethylethyl)-5-hydroxyphenyl]-1,4-dihydro-4-oxoquinoline-3-carboxamide triple combination control (% Activity).

CFTR [2] = target: T2, CFTR; assay: Membrane Potential Dye, Enteroid Assay B; assay type: cell-based
How it was run: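 Membrane-potential fluorescence read over 15 min after chloride-free stimulation (forskolin 10 μM, IBMX 100 μM, Compound III 300 nM), with CaCCinh-A01 and Chicago Sky Blue present. Enteroids had 18-24 h compound exposure at 37 °C; activity given as % of the triple-combination corrector/potentiator reference response.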

Compound	EC50 (F508del) [µM]	Emax (F508del) [%]	Ent. A Max Activity (CFTR [1])	EC50 (CFTR [1]) [µM]	further results
CCc1c2nc(nc1-c1c(C)c(C)c(C)c(C)c1C)NS(=O)(=O)c1cccc(c1)NC(=O)c1cccc(c1)O2 [Compound 2, 4-Ethyl-9,9-dioxo-5-(2,3,4,5,6-pentamethylphenyl)-2-oxa-9λ^6-thia-6,8,15,23-tetrazatetracyclo[15.3.1.13,7.110,14]tricosa-1(21),3,5,7(23),10,12,14(22),17,19-nonaen-16-one]	< 1	> 60			
Cc1ccc2cc1Oc1nc(nc(-c3c(C)cccc3C)c1Cl)NS(=O)(=O)c1cccc(c1)NC2=O [Compound 8]	< 1	> 60			
CCc1c2nc(nc1-c1ccccc1COCCOC)NS(=O)(=O)c1cccc(c1)NC(=O)c1cccc(c1)O2 [Compound 11]	< 1	> 60			
CCc1c2nc(nc1-c1ccccc1CN(C)C)NS(=O)(=O)c1cccc(c1)NC(=O)c1cccc(c1)O2 [Compound 10]		< 30			
CCc1c2nc(nc1-c1ccccc1C(C)C)NS(=O)(=O)c1cccc(c1)NC(=O)c1cc(ccc1Cl)O2 [Compound 5, 18-Chloro-4-ethyl-5-[2-(propan-2-yl)phenyl]-2-oxa-9λ^6-thia-6,8,15,23-tetraazatetracyclo[15.3.1.13,7.110,14]tricosa-1(20),3(23),4,6,10(22),11,13,17(21),18-nonaene-9,9,16-trione]	< 1	> 60	+++ (+++ is >60%)	< 1	
CCc1c2nc(nc1-c1ccccc1COC)NS(=O)(=O)c1cccc(c1)NC(=O)c1cccc(c1)O2 [Compound 12]	< 1	> 60			
CCc1c2nc(nc1-c1ccccc1CC(C)C)NS(=O)(=O)c1cccc(c1)NC(=O)c1cccc(c1)O2 [Compound 3, 4-Ethyl-5-(2-isobutylphenyl)-9,9-dioxo-2-oxa-9λ^6-thia-6,8,15,23-tetrazatetracyclo[15.3.1.13,7.110,14]tricosa-1(21),3,5,7(23),10,12,14(22),17,19-nonaen-16-one]	< 1	> 60	+++ (+++ is >60%)	< 1	
CCc1c2nc(nc1-c1ccccc1C1CCC1)NS(=O)(=O)c1cccc(c1)NC(=O)c1cccc(c1)O2 [Compound 1, 5-(2-Cyclobutylphenyl)-4-ethyl-9,9-dioxo-2-oxa-9λ^6-thia-6,8,15,23-tetrazatetracyclo[15.3.1.13,7.110,14]tricosa-1(21),3,5,7(23),10,12,14(22),17,19-nonaen-16-one]	< 1	> 60	++ (++ is 30-60%)	< 1	

More lines, main results first:

EC50 (F508del) [µM]	Emax (F508del) [%]	Ent. A Max Activity (CFTR [1])	EC50 (CFTR [1]) [µM]	Compound	further results
	< 30			CCc1c2nc(nc1-c1ccc([S+](C)[O-])cc1)NS(=O)(=O)c1cccc(c1)NC(=O)c1cccc(c1)O2 (stereo not drawn) [Compound 18]	
< 1	> 60	+++ (+++ is >60%)	< 1	CCc1c2nc(nc1-c1ccccc1C(C)C)NS(=O)(=O)c1cccc(c1)NC(=O)c1cccc(c1)O2 [Compound 16]	
		++ (++ is 30-60%)	1 to 3	Cc1ccccc1-c1nc2nc(c1C(F)(F)F)OCC1CN(CCN1CCC1(C(F)(F)F)CC1)C(=O)c1cccc(c1)S(=O)(=O)N2 (stereo not drawn) [Compound 32, 12-(2-Methylphenyl)-13-(trifluoromethyl)-18-{2-[1-(trifluoromethyl)cyclopropyl]ethyl}-15-oxa-8λ^6-thia-1,9,11,18,22-pentaazatetracyclo[15.3.1.13,7.110,14]tricosa-3(23),4,6,10(22),11,13-hexaene-2,8,8-trione]	ring closure, yield after HPLC (from Cc1ccccc1-c1nc(NS(=O)(=O)c2cccc(C(=O)O)c2)nc(OCC2CNCCN2CCC2(C(F)(F)F)CC2)c1C(F)(F)F, amide bond, 14-membered ring, HATU/DIEA, DMF, 25.0 °C, 1.0 h, 3 steps): 16%
		++ (++ is 30-60%)	3 to 30	Cc1ccccc1-c1nc2nc(c1C(F)(F)F)OCC1CN(C)CCN1C(=O)c1cccc(c1)S(=O)(=O)N2 (stereo not drawn) [Compound 31, 6-Methyl-13-(2-methylphenyl)-12-(trifluoromethyl)-10-oxa-17λ^6-thia-3,6,14,16,23-pentaazatetracyclo[16.3.1.111,15.03,8]tricosa-1(22),11,13,15(23),18,20-hexaene-2,17,17-trione]	ring closure, yield after HPLC (from Cc1ccccc1-c1nc(NS(=O)(=O)c2cccc(C(=O)N3CCN(C)CC3CO)c2)nc(Cl)c1C(F)(F)F, snar bond, 13-membered ring, NaH, NMP, 70.0 °C, 4.0 h, 2 steps): 6%
		+++ (+++ is >60%)	< 1	Cc1cccc(C)c1-c1nc2nc(c1OC(C)C)OC[C@@H](CC(C)C)NC(=O)c1cccc(c1)S(=O)(=O)N2 [Compound 165, (11R)-6-(2,6-Dimethylphenyl)-11-isobutyl-7-isopropoxy-2,2-dioxo-9-oxa-2λ^6-thia-3,5,12,19-tetrazatricyclo[12.3.1.14,8]nonadeca-1(18),4(19),5,7,14,16-hexaen-13-one]	Ent. B Max Activity (CFTR [2]): +++ (+++ is >60%); EC50 (CFTR [2]; read-out: Ent. B EC50): < 1 µM; ring closure, yield after HPLC (from Cc1cccc(C)c1-c1nc(NS(=O)(=O)c2cccc(C(=O)O)c2)nc(OC[C@H](N)CC(C)C)c1OC(C)C, amide bond, 13-membered ring, HATU/Et3N, DMF, 12.0 mM, 0.5 h, 2 steps): 8%
< 1	> 60			CCc1c2nc(nc1-c1cccc(C)c1C)NS(=O)(=O)c1cccc(c1)NC(=O)c1cccc(c1)O2 [Compound 17]	
< 1	> 60	+++ (+++ is >60%)	< 1	CCc1c2nc(nc1-c1ccccc1C(C)C)NS(=O)(=O)c1cccc(c1)NC(=O)c1cccc(c1C)O2 [Compound 15]	
< 1	> 60	+ (+ is <30%)		CCc1c2nc(nc1-c1ccccc1OC(C)C)NS(=O)(=O)c1cccc(c1)NC(=O)c1cccc(c1)O2 [Compound 29]	
< 1	> 60			CCc1c2nc(nc1-c1c(C)cc(C)cc1C)NS(=O)(=O)c1cccc(c1)NC(=O)c1cccc(c1)O2 [Compound 19]	
